Experimental data: patent US12115178B2, “Acylated active agents and methods of their use for the treatment of autoimmune disorders” (Flagship Pioneering Innovations V, Inc., priority 2018, dated 2024)

Assay: Assay 2. Stability in Simulated Intestinal Fluid (SIF)
Type: in vitro ADME
Conditions: SIF pH 6.7 with pancreatin, 1 μM, 37° C.
Description: Assay 2. Stability of acylated active agents in Simulated Intestinal Fluid (SIF). This assay was used to assess the stability of an acylated active agent in a small intestine. Phosphate buffer was prepared by dissolving 0.42 g of sodium hydroxide pellets and 3.95 g of monobasic sodium phosphate monohydrate and 6.19 g of sodium chloride in ultrapure water (MilliQ®, Millipore Sigma, Darmstadt, Germany). The pH was adjusted to 6.7 using aq. HCl and aq. NaOH, as necessary, and the solution was diluted with ultrapure water to produce 1 L of the pH 6.7 buffer. 112 mg FaSSIF powder (Biorelevant™, London, UK) was dissolved in 50 mL of the pH 6.7 buffer. 2 to 3 mL of the resulting solution were then added to 500 mg pancreatin (Millipore Sigma, Darmstadt, Germany). The resulting mixture was agitated by finger tapping the vessel containing the mixture until milky suspension formed. At this time, the remainder of the 50 mL FaSSiF/pH 6.7 buffer solution was added. The resulting suspension was flipped upside down 10 times to produce SIF, which was used fresh. Test compounds were dissolved in DMSO stock to 1 mM. An aliquot of the DMSO stock solution was removed and diluted in the SIF media in 15 mL falcon tubes to produce a mixture with a tested compound concentration of 1 μM. A 1 mL aliquot was immediately removed and diluted once with 1 volume of acetonitrile for T0 timepoint. The mixture was sealed and agitated at 37° C. in an incubator. Aliquots (1 mL) were removed at regular intervals and immediately quenched by the addition of 1 volume of acetonitrile. The resulting samples were analyzed by LC/MS to determine degradation rates.
With CC(=O)Oc1ccc(-c2oc3cc(OC(C)=O)cc(OC(C)=O)c3c(=O)c2OC(C)=O)cc1 [Compound 8, [4-(3,5,7-triacetoxy-4-oxo-chromen-2-yl)phenyl] acetate] the “Assay 2 (SIF) (% @ Remaining 4 hours)” value was “A (<25% of the tested compound remaining)”. For CCCC(=O)Oc1ccc(/N=N/c2ccc(OC(=O)CCC)c(C(=O)O)c2)cc1C(=O)O [Compound 17, 2-butanoyloxy-5-[(E)-(4-butanoyloxy-3-carboxy-phenyl)azo]benzoic acid], the “Assay 2 (SIF) (% @ Remaining 4 hours)” value was “A (<25% of the tested compound remaining)”. In the case of CCCC(=O)O[C@H]1[C@@H](Oc2ccccc2C(=O)O)OC[C@@H](OC(=O)CCC)[C@H]1OC(=O)CCC [Compound 42, 2-(((3R,4R,5R)-3,4,5-tris(butyryloxy)tetrahydro-2H-pyran-2-yl)oxy)benzoic acid], the “Assay 2 (SIF) (% @ Remaining 4 hours)” value is reported as “C (>75% of the tested compound remaining)”. For CCCC(=O)O[C@H]1O[C@@H](C)[C@H](OC(=O)CCC)[C@@H](OC(=O)CCC)[C@H]1OC(=O)CCC [Compound 119, (2R,3R,4R,5S,6S)-3,4,5-tris(butanoyloxy)-6-methyloxan-2-yl butanoate], the “Assay 2 (SIF) (% @ Remaining 4 hours)” value was “A (<25% of the tested compound remaining)”. With CCCC(=O)O[C@@H]1O[C@@H](C)[C@H](OC(=O)CCC)[C@@H](OC(=O)CCC)[C@H]1OC(=O)CCC [Compound 120, (2S,3R,4R,5S,6S)-3,4,5-tris(butanoyloxy)-6-methyloxan-2-yl butanoate] the “Assay 2 (SIF) (% @ Remaining 4 hours)” value was “A (<25% of the tested compound remaining)”. For C[C@@H]1O[C@H](OC(=O)Cc2c[nH]c3ccccc23)[C@H](OC(=O)Cc2c[nH]c3ccccc23)[C@H](OC(=O)Cc2c[nH]c3ccccc23)[C@H]1OC(=O)Cc1c[nH]c2ccccc12 [Compound 121, (2R,3R,4R,5S,6S)-3,4,5-tris({[2-(1H-indol-3-yl)acetyl]oxy})-6-methyloxan-2-yl 2-(1H-indol-3-yl)acetate], the “Assay 2 (SIF) (% @ Remaining 4 hours)” value was “A (<25% of the tested compound remaining)”. In the case of C[C@@H]1O[C@@H](OC(=O)Cc2c[nH]c3ccccc23)[C@H](OC(=O)Cc2c[nH]c3ccccc23)[C@H](OC(=O)Cc2c[nH]c3ccccc23)[C@H]1OC(=O)Cc1c[nH]c2ccccc12 [Compound 122, (2S,3R,4R,5S,6S)-3,4,5-tris({[2-(1H-indol-3-yl)acetyl]oxy})-6-methyloxan-2-yl 2-(1H-indol-3-yl)acetate], the “Assay 2 (SIF) (% @ Remaining 4 hours)” value is reported as “A (<25% of the tested compound remaining)”. In the case of CCCC(=O)OCC1(OC(=O)CCC)OC[C@@H](OC(=O)CCC)[C@H](OC(=O)CCC)[C@@H]1OC(=O)CCC (stereo partly drawn) [Compound 131, [(3S,4S,5R)-2,3,4,5-tetrakis(butanoyloxy)oxan-2-yl]methyl butanoate], the “Assay 2 (SIF) (% @ Remaining 4 hours)” value is reported as “A (<25% of the tested compound remaining)”. With CCCC(=O)O[C@@H]1[C@@H](OC(=O)CCC)[C@H](C)O[C@@H](O)[C@@H]1OC(=O)CCC [Compound 141, (2S,3S,4R,5R)-4,5-bis(butanoyloxy)-6-hydroxy-2-methyloxan-3-yl butanoate] the “Assay 2 (SIF) (% @ Remaining 4 hours)” value was “C (>75% of the tested compound remaining)”. In the case of CCCC(=O)O[C@H]1OC[C@@H](OC(=O)CCC)[C@H](OC(=O)CCC)[C@H]1OC(=O)CCC [Compound 159, (2R,3R,4S,5R)-3,4,5-tris(butanoyloxy)oxan-2-yl butanoate], the “Assay 2 (SIF) (% @ Remaining 4 hours)” value is reported as “C (>75% of the tested compound remaining)”. For CCCC(=O)Oc1ccc([C@@H]2CC(=O)c3c(OC(=O)CCC)cc(OC(=O)CCC)cc3O2)cc1 [Compound 175, (S)-2-(4-(butyryloxy)phenyl)-4-oxochromane-5,7-diyl dibutyrate], the “Assay 2 (SIF) (% @ Remaining 4 hours)” value was “A (<25% of the tested compound remaining)”. For CC(=O)Oc1ccc([C@@H]2CC(=O)c3c(OC(C)=O)cc(OC(C)=O)cc3O2)cc1 [Compound 176, (S)-2-(4-acetoxyphenyl)-4-oxochromane-5,7-diyl diacetate], the “Assay 2 (SIF) (% @ Remaining 4 hours)” value was “A (<25% of the tested compound remaining)”. In the case of CC(=O)Oc1cc(OC(C)=O)c2c(=O)c(OC(C)=O)c(-c3ccc(OC(C)=O)c(OC(C)=O)c3)oc2c1 [Compound 182, [2-acetoxy-4-(3,5,7-triacetoxy-4-oxo-chromen-2-yl)phenyl] acetate], the “Assay 2 (SIF) (% @ Remaining 4 hours)” value is reported as “A (<25% of the tested compound remaining)”. For CCCC(=O)O[C@@H]1[C@@H](OC(=O)CCC)[C@@H](Oc2ccc(N)cc2C(=O)O)OC[C@H]1OC(=O)CCC [Compound 184, 5-amino-2-[(2R,3R,4S,5R)-3,4,5-tri(butanoyloxy)tetrahydropyran-2-yl]oxy-benzoic acid], the “Assay 2 (SIF) (% @ Remaining 4 hours)” value was “B (25-75% of the tested compound remaining)”. For CCCC(=O)Nc1ccc(O[C@@H]2OC[C@@H](OC(=O)CCC)[C@H](OC(=O)CCC)[C@H]2OC(=O)CCC)c(C(=O)O)c1 [Compound 188, 5-butanamido-2-{[(2S,3R,4S,5R)-3,4,5-tris(butanoyloxy)oxan-2-yl]oxy}benzoic acid], the “Assay 2 (SIF) (% @ Remaining 4 hours)” value was “A (<25% of the tested compound remaining)”. With CC(=O)Oc1ccc2c(c1)oc(=O)c1cc(OC(C)=O)c(OC(C)=O)cc12 [Compound 203, 6-oxo-6H-benzo[c]chromene-3,8,9-triyl triacetate] the “Assay 2 (SIF) (% @ Remaining 4 hours)” value was “B (25-75% of the tested compound remaining)”.

Assay: Assay 1. Stability in Simulated Gastric Fluid (SGF)
Type: in vitro ADME
Conditions: SGF pH 1.6 with pepsin, 1 μM, 37° C.
Description: Assay 1. Stability of acylated active agents in Simulated Gastric Fluid (SGF). This assay was used to assess the stability of an acylated active agent in a stomach.
Medium was prepared by dissolving 2 g of sodium chloride in 0.6 L in ultrapure water (MilliQ®, Millipore Sigma, Darmstadt, Germany). The pH was adjusted to 1.6 with 1N hydrochloric acid, and the volume was then adjusted to 1 L with purified water.
60 mg FaSSIF powder (Biorelevant™, London, UK) were dissolved in 500 mL buffer (above). Pepsin was added (0.1 mg/mL) (Millipore Sigma, Darmstadt, Germany), and the solution was stirred. The resulting SGF media were used fresh for each experiment.
Test compounds were dissolved in DMSO stock to 1 mM. An aliquot of the DMSO stock solution was removed and diluted in the SGF Media in 15 mL falcon tubes to generate a total compound concentration of 1 μM. A 1 mL aliquot was immediately removed and diluted once with 1 volume of acetonitrile for T0 timepoint. The mixture was sealed and mixed at 37° C. in an incubator. Aliquots (1 mL) were removed at regular intervals and immediately quenched by the addition of 1 volume of acetonitrile. The resulting samples were analyzed by LC/MS to determine degradation rates in SGF.
With CC(=O)Oc1cc(OC(C)=O)c2c(=O)c(OC(C)=O)c(-c3ccc(OC(C)=O)c(OC(C)=O)c3)oc2c1 [Compound 4, [2-acetoxy-4-(3,5,7-triacetoxy-4-oxo-chromen-2-yl)phenyl] acetate] the “Assay 1 (SGF) (% Remaining @ 1 hour)” value was “C (>75% of the tested compound remaining)”. For CC(=O)Oc1cc(OC(C)=O)c2c(=O)c(OC(C)=O)c(-c3cc(OC(C)=O)c(OC(C)=O)c(OC(C)=O)c3)oc2c1 [Compound 11, [3,5-diacetoxy-4-oxo-2-(3,4,5-triacetoxyphenyl)chromen-7-yl] acetate], the “Assay 1 (SGF) (% Remaining @ 1 hour)” value was “C (>75% of the tested compound remaining)”. For CCCC(=O)OC[C@H]1O[C@@H](Oc2ccccc2C(=O)O)[C@H](OC(=O)CCC)[C@@H](OC(=O)CCC)[C@@H]1OC(=O)CCC [Compound 28, 2-(((2S,3R,4S,5R,6R)-3,4,5-tris(butyryloxy)-6-((butyryloxy)methyl)tetrahydro-2H-pyran-2-yl)oxy)benzoic acid], the “Assay 1 (SGF) (% Remaining @ 1 hour)” value was “C (>75% of the tested compound remaining)”. With CCC(=O)O[C@@H]1[C@@H](OC(=O)CC)[C@@H](OC(=O)CCc2c[nH]c3ccccc23)OC[C@H]1OC(=O)CC [Compound 75, (2R,3R,4S,5R)-3,4,5-tris(propanoyloxy)oxan-2-yl 3-(1H-indol-3-yl)propanoate] the “Assay 1 (SGF) (% Remaining @ 1 hour)” value was “C (>75% of the tested compound remaining)”. With CCC(=O)OC[C@H]1O[C@@H](OC(=O)/C=C/c2c[nH]c3ccccc23)[C@H](OC(=O)CC)[C@@H](OC(=O)CC)[C@@H]1OC(=O)CC [Compound 95, (2S,3R,4S,5R,6R)-3,4,5-tris(propanoyloxy)-6-[(propanoyloxy)methyl]oxan-2-yl (2E)-3-(1H-indol-3-yl)prop-2-enoate] the “Assay 1 (SGF) (% Remaining @ 1 hour)” value was “B (25-75% of the tested compound remaining)”. In the case of CCC(=O)O[C@H]1[C@H](OC(=O)CC)[C@H](OC(=O)/C=C/c2c[nH]c3ccccc23)O[C@@H](C)[C@H]1OC(=O)CC [Compound 116, (2S,3S,4R,5R,6S)-6-methyl-3,4,5-tris(propanoyloxy)oxan-2-yl (2E)-3-(1H-indol-3-yl)prop-2-enoate], the “Assay 1 (SGF) (% Remaining @ 1 hour)” value is reported as “C (>75% of the tested compound remaining)”. For CCC(=O)O[C@@H]1OC[C@H](OC(=O)CC)[C@H](OC(=O)CC)[C@H]1OC(=O)CC [Compound 128, (2S,3R,4S,5S)-3,4,5-tris(propanoyloxy)oxan-2-yl propanoate], the “Assay 1 (SGF) (% Remaining @ 1 hour)” value was “C (>75% of the tested compound remaining)”. In the case of CCC(=O)O[C@@H]1[C@@H](OC(=O)CC)[C@H](OC(=O)CCc2c[nH]c3ccccc23)OC[C@H]1OC(=O)CC [Compound 132, (2S,3R,4S,5R)-3,4,5-tris(propanoyloxy)oxan-2-yl 3-(1H-indol-3-yl)propanoate], the “Assay 1 (SGF) (% Remaining @ 1 hour)” value is reported as “C (>75% of the tested compound remaining)”. For CCC(=O)Oc1cc(OC(=O)CC)c2c(=O)c(OC(=O)CC)c(-c3ccc(OC(=O)CC)c(OC(=O)CC)c3)oc2c1 [Compound 174, [4-[4-oxo-3,5,7-tri(propanoyloxy)chromen-2-yl]-2-propanoyloxy-phenyl] propanoate], the “Assay 1 (SGF) (% Remaining @ 1 hour)” value was “C (>75% of the tested compound remaining)”.
